Experimental data: article PMC7588595, “Small-molecule active pharmaceutical ingredients of approved cancer therapeutics inhibit human aspartate/asparagine-β-hydroxylase” (Bioorganic & Medicinal Chemistry, 2020)

Biological target: T1, human AspH (His6-AspH315–758) (Homo sapiens, UniProt Q12797)
T1 construct: N-Terminally His6-tagged human AspH315–758 (His6-AspH315–758) was produced in Escherichia coli BL21 (DE3) cells; made in house; host or cells: Escherichia coli BL21 (DE3), pET-28a(+) vector
T1 sequence (Q12797 315-758): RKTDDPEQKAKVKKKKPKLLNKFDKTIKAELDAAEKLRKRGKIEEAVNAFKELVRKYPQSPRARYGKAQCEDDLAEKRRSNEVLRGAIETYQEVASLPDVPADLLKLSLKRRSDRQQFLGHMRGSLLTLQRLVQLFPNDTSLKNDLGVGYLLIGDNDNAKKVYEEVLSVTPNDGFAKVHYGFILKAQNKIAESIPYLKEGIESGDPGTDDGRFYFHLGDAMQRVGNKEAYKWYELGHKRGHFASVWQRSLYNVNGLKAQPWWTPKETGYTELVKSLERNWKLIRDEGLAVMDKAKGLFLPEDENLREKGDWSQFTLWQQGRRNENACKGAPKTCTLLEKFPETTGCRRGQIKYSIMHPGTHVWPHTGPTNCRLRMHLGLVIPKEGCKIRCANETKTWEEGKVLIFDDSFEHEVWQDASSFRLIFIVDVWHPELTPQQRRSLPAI
Assay: SPE-MS AspH inhibition assay (hFX-CP101-119 substrate hydroxylation)
Type: biochemical
Settings: AspH-inhibitor screening; for Plate 1 (% inhibition): 384-well Plate 1; for Plate 1 (% conversion): 384-well Plate 1, substrate conversion; for Plate 1-duplicate (% conversion): substrate conversion

| Plate 1 (% inhibition) [%] | Plate 1 (% conversion) [%] | Plate 1-duplicate (% inhibition) [%] | Plate 1-duplicate (% conversion) [%] | SMILES |
| --- | --- | --- | --- | --- |
| 3.10 | 48.32 | -2.44 | 53.25 | CN[C@@H](C)C(=O)N[C@H]1CN(C(=O)CC(C)C)CC[C@H]2CC[C@@H](C(=O)NC(c3ccccc3)c3ccccc3)N2C1=O [AT-406] |
| 11.01 | 44.66 | 0.70 | 51.69 | COc1cc2nccc(Oc3ccc(NC(=O)Nc4cc(C)on4)c(Cl)c3)c2cc1OC [AV-951 (Tivozanib)] |
| -7.04 | 53.00 | -8.24 | 56.13 | CC[C@H](CC#N)OC(=O)N[C@@H](C)c1cccc(NC(=O)Nc2ccc(-c3cnco3)c(OC)c2)c1 [AVN944] |
| -0.12 | 49.81 | 6.11 | 49.01 | Cc1cc(Nc2nc(N[C@@H](C)c3ncc(F)cn3)ncc2Cl)n[nH]1 [AZD1480] |
| 7.73 | 46.18 | 4.94 | 49.59 | CNC(=O)c1cccc(-c2ccc3c(N4CCOC[C@@H]4C)nc(N4CCOC[C@@H]4C)nc3n2)c1 [AZD2014] |
| 5.13 | 47.38 | 5.57 | 49.28 | Cn1cnc2c(F)c(Nc3ccc(Br)cc3Cl)c(C(=O)NOCCO)cc21 [AZD6244 (Selumetinib)] |
| 0.34 | 49.59 | 4.92 | 49.60 | COc1ccc(-c2ccc3c(N4CCOC[C@@H]4C)nc(N4CCOC[C@@H]4C)nc3n2)cc1CO [AZD8055] |
| 14.30 | 43.15 | 4.66 | 49.73 | Cl.NC(=O)Nc1cc(-c2cccc(F)c2)sc1C(=O)N[C@H]1CCCNC1 [AZD 7762 hydrochloride] |
| 1.80 | 48.92 | 1.40 | 51.35 | C[C@]12CC[C@H](O)CC1=CC[C@@H]1[C@@H]2CC[C@]2(C)C(c3cccnc3)=CC[C@@H]12 [Abiraterone] |
| 8.67 | 45.75 | 10.50 | 46.84 | CN(Cc1cnc2nc(N)nc(N)c2n1)c1ccc(C(=O)N[C@@H](CCC(=O)O)C(=O)O)cc1 [Abitrexate/Methotrexate] |
| -0.39 | 49.93 | 8.49 | 47.83 | CCc1cc2c(cc1N1CCC(N3CCOCC3)CC1)C(C)(C)c1[nH]c3cc(C#N)ccc3c1C2=O [Alectinib] |
| -0.61 | 50.03 | 4.67 | 49.73 | Oc1ncnc2[nH]ncc12 [Allopurinol] |
| 3.32 | 48.22 | 13.59 | 45.30 | CN(C)c1nc(N(C)C)nc(N(C)C)n1 [Altretamine] |

The next lines start with the compound.

| SMILES | Plate 1 (% inhibition) [%] | Plate 1 (% conversion) [%] | Plate 1-duplicate (% inhibition) [%] | Plate 1-duplicate (% conversion) [%] |
| --- | --- | --- | --- | --- |
| Cn1cc(C[C@@H](N)C(=O)O)c2ccccc21 [1-methyl-D-tryptophan, 95%] | 6.32 | 46.83 | 9.06 | 47.55 |
| COc1cc2c(cc1O)CC[C@@H]1[C@@H]2CC[C@]2(C)[C@@H](O)CC[C@@H]12 [2-methoxyestradiol (Panzem)] | 5.63 | 47.15 | 3.64 | 50.24 |
| CC/C(=C(\c1ccc(O)cc1)c1ccc(OCCN(C)C)cc1)c1ccccc1 [4-hydroxytamoxifen] | -45.98 | 70.98 | -42.66 | 73.20 |
| C=CCNC1=C2C[C@@H](C)C[C@H](OC)[C@H](O)[C@@H](C)/C=C(\C)[C@H](OC(N)=O)[C@@H](OC)/C=C\C=C(/C)C(=O)NC(=CC1=O)C2=O [17-AAG (Tanespimycin, Geldanamycin)] | -8.89 | 53.86 | -13.53 | 58.75 |
| CO[C@H]1/C=C\C=C(/C)C(=O)NC2=CC(=O)C(NCCN(C)C)=C(C[C@@H](C)C[C@H](OC)[C@H](O)[C@@H](C)/C=C(\C)[C@@H]1OC(N)=O)C2=O [17-DMAG (Alvespimycin)] | -4.95 | 52.04 | -6.36 | 55.19 |
| COc1cc(O)c2c(c1)/C=C/C[C@H](O)[C@H](O)C(=O)/C=C\C[C@H](C)OC2=O [(5Z)-7-Oxozeaenol] | 21.38 | 39.88 | 23.66 | 40.31 |
| C[C@@H](C(=O)O)c1ccc(-c2ccccc2)c(F)c1 [(R)-Flurbiprofen (Tarenflurbil)] | 10.59 | 44.86 | 16.18 | 44.01 |
| CC1(C)CCC(c2ccc(Cl)cc2)=C(CN2CCN(c3ccc(C(=O)NS(=O)(=O)c4ccc(N[C@H](CCN5CCOCC5)CSc5ccccc5)c(S(=O)(=O)C(F)(F)F)c4)cc3)CC2)C1 [ABT-263 (Navitoclax)] | 90.19 | 8.10 | 90.05 | 7.38 |
| COc1ccc(S(=O)(=O)Nc2cccnc2Nc2ccc(O)cc2)cc1 [ABT-751] | 4.88 | 47.50 | 8.62 | 47.77 |
| Cc1ccc(F)c(NC(=O)Nc2ccc(-c3cccc4[nH]nc(N)c34)cc2)c1 [ABT-869_Linifanib] | 24.64 | 38.37 | 34.65 | 34.86 |
| C[C@]1(c2nc3c(C(N)=O)cccc3[nH]2)CCCN1 [ABT-888 (Veliparib)] | 6.01 | 46.97 | 4.15 | 49.98 |
| CC(C)(C)c1cc(NC(=O)Nc2ccc(-c3cn4c(n3)sc3cc(OCCN5CCOCC5)ccc34)cc2)no1 [AC220_Quizartinib] | -19.26 | 58.64 | -18.68 | 61.31 |
| CNCc1ccc(-c2[nH]c3cc(F)cc4c3c2CCNC4=O)cc1 [AG-014699_Rucaparib] | 17.02 | 41.89 | 9.37 | 47.39 |
| Cc1ccc(C(=O)Nc2ccc(CN3CCN(C)CC3)c(C(F)(F)F)c2)cc1C#Cc1cnc2cccnn12 [AP24534 (Ponatinib)] | -64.76 | 79.66 | -35.27 | 69.54 |
| O=C1NC(=O)[C@@H](c2cn3c4c(cccc24)CCC3)[C@@H]1c1c[nH]c2ccccc12 [ARQ 197_Tivantinib] | -6.95 | 52.96 | -13.62 | 58.79 |
| Cn1cnc2c(F)c(Nc3ccc(Br)cc3F)c(C(=O)NOCCO)cc21 [ARRY-162_MEK-162] | -1.29 | 50.34 | 1.23 | 51.43 |
| O=C(NC[C@H](O)CO)c1ccncc1Nc1ccc(I)cc1F [AS703026_Pimasertib] | 12.00 | 44.21 | 9.34 | 47.41 |
| O=C(Nc1c[nH]nc1-c1nc2ccc(CN3CCOCC3)cc2[nH]1)NC1CC1 [AT9283] | -0.09 | 49.79 | 2.46 | 50.82 |
| CCN(CCO)CCCOc1ccc2c(Nc3cc(CC(=O)Nc4cccc(F)c4)[nH]n3)ncnc2c1 [AZD1152-HQPA] | 1.19 | 49.20 | 0.26 | 51.91 |
| NCCCNCCSP(=O)(O)O [Amifostine] | 3.65 | 48.06 | 5.75 | 49.19 |
| CCC1(c2ccc(N)cc2)CCC(=O)NC1=O (stereo not shown) [Aminoglutethimide] | 11.22 | 44.57 | 9.40 | 47.38 |
